Data: patent US20110039893A1, “GSK-3BETA INHIBITOR” (Takeda Pharmaceutical Company Limited, priority 2006, published 2011)

What follows are compounds tested against T1, recombinant GSK-3β enzyme (Homo sapiens, UniProt P49841) (assay: GSK-3β inhibitory activity evaluation (Kinase Glo luminescence, recombinant enzyme)). Details: recombinant human GSK-3β 100 ng, glycogen synthase-derived substrate peptide, 2.5 μM ATP solution, 30 min room temperature.
T1 construct: FLAG (N); made in house; host or cells: Sf-21 insect cells, recombinant baculovirus (pFASTBAC1, BAC-TO-BAC)
Assay type: biochemical
Procedure: Human GSK-3β gene was cloned by PCR using human brain cDNA (Clontech; trade name: QUICK-Clone cDNA) as a template and a primer set (GSK3β-U: 5′-[…] CTT-3′ (SEQ ID NO: 1) and GSK3β-L: 5′-[…]-3′ (SEQ ID NO: 2)) prepared by reference to the base sequence of GSK-3β gene registered under an accession No. NM_002093 in the GenBank.
PCR was performed according to the protocol attached to KOD plus DNA polymerase (TOYOBO CO., LTD.). The obtained PCR product was subjected to agarose gel (1%) electrophoresis, and DNA fragment (1.2 kb) containing GSK-3β gene was recovered from the gel, and digested with restriction enzymes EcoR I and Sal I. DNA after treatment with restriction enzymes was subjected to agarose gel (1%) electrophoresis, and the obtained DNA fragment was recovered, and ligated to plasmid pFASTBAC1 (Invitrogen) digested with restriction enzymes EcoR I and Sal I to give expression plasmid pFB-GSK3β. The base sequence of the inserted fragment was confirmed to match the object sequence. Using BAC-TO-BAC Baculovirus Expression System (Invitrogen), virus stock BAC-GSK3β of recombinant Baculovirus was prepared.
Sf-21 cells (Invitrogen) were inoculated to 150 ml Sf-900 II SEM medium (Invitrogen) containing 10% fetal bovine serum to 1×10^6 cells/ml and cultured at 27° C. for 24 hr. To the obtained culture medium was added the virus stock BAC-GSK3β of recombinant Baculovirus obtained above by 150 μl each, and the cells were further cultured for 60 hr. The culture medium was centrifuged (3000 rpm, 10 min) to separate the cells, and the cells were washed once with PBS. The cells were suspended in 10 ml of cell lysis buffer (25 mM HEPES (pH 7.5), 1% Triton X, 130 mM sodium chloride, 1 mM EDTA, 1 mM Dithiothreitol, 25 mM β-glycerophosphate, Protease inhibitor Complete (Boehringer), 1 mM sodium orthovanadate), treated 4 times in a homogenizer (POLYTRON) at 20000 rpm, 30 sec to disrupt the cells. The cell disrupt solution was centrifuged (40000 rpm, 45 min), and GSK-3β was purified from the obtained supernatant using Anti-FLAG M2 Affinity Gel (Sigma Ltd.).
To 37.5 μl of a reaction solution (25 mM HEPES (pH 7.5), 10 mM magnesium acetate, 1 mM DTT, 0.01% bovine serum albumin (Wako Pure Chemical Industries, Ltd.)) containing recombinant GSK-3β enzyme (100 ng) obtained above and substrate peptide ([…]pSEDEEE (SEQ ID NO: 3), pS is phosphorylated serine) (100 ng) derived from glycogen synthase was added a test compound (2.5 μl) dissolved in DMSO, and the mixture was incubated at room temperature for 5 min. To the obtained mixture was added ATP solution (2.5 μM ATP, 10 μl), and the mixture was reacted at room temperature for 30 min. After the reaction, the reaction was quenched by adding 50 μL of Kinase Glo Reagent (Promega) to the reaction solution. After reaction at room temperature for 10 min, the luminescence amount was measured using an ARVO multilabel counter (PerkinElmer Life Sciences). The concentration of the test compound necessary for inhibiting the luminescence amount by 50% (IC50 value) was calculated by PRISM 3.0 (Graphpad software).

T1 sequence (P49841 whole entry): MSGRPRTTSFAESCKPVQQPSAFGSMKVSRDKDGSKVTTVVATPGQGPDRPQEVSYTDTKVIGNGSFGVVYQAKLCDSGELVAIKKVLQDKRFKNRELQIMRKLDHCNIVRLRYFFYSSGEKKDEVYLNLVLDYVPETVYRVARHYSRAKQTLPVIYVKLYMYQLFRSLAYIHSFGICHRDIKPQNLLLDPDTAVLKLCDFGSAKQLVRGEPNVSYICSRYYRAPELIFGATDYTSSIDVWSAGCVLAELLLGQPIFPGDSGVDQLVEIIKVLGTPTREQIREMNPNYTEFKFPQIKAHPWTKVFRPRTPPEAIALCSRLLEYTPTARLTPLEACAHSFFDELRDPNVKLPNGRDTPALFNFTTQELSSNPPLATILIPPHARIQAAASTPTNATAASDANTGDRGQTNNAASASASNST

Q: How did the IC50 turn out when `CC1(c2ccccc2)CN(c2ccnc(NC(=O)NCc3ccccn3)c2)C(=O)O1` (centres unmarked) [Example 49, N-(4-(5-methyl-2-oxo-5-phenyl-1,3-oxazolidin-3-yl)pyridin-2-yl)-N′-(pyridin-2-ylmethyl)urea] was run?
A: Its IC50 is < 100 nM.

Q: With `O=C(NCc1ccccn1)Nc1cc(N2CC(Cc3ccccc3)OC2=O)ccn1` (centres unmarked) [Example 43, N-(4-(5-benzyl-2-oxo-1,3-oxazolidin-3-yl)pyridin-2-yl)-N′-(pyridin-2-ylmethyl)urea] as the compound, how does the IC50 read?
A: The IC50 was < 100 nM.

Q: `O=C(NCc1ccccn1)Nc1cc(N2CC(Cc3ccccc3)CC2=O)ccn1` (centres unmarked) [Example 34, N-(4-(4-benzyl-2-oxopyrrolidin-1-yl)pyridin-2-yl)-N′-((pyridin-2-yl)methyl)urea] was tested. Which IC50 did it give?
A: The IC50 was < 100 nM.

Q: With `Cc1ccc2c(c1)oc(=O)n2-c1ccnc(NC(=O)NCc2ccccn2)c1` [Example 65, 1-(4-(6-methyl-2-oxo-1,3-benzoxazol-3(2H)-yl)pyridin-2-yl)-3-(pyridin-2-ylmethyl)urea] as the compound, how does the IC50 read?
A: Its IC50 is < 100 nM.

Q: Which IC50 does the source give for `O=C(NCc1ccccn1)Nc1cc(N2CC(CCc3ccccc3)OC2=O)ccn1` (centres unmarked) [Example 44, N-(4-(2-oxo-5-(2-phenylethyl)-1,3-oxazolidin-3-yl)pyridin-2-yl)-N′-(pyridin-2-ylmethyl)urea] here?
A: Its IC50 is < 100 nM.

Q: With `O=C(NCc1ccccn1)Nc1cc(N2CC(c3cccc(C(F)(F)F)c3)CC2=O)ccn1` (centres unmarked) [Example 25, N-(4-(2-oxo-4-(3-(trifluoromethyl)phenyl)pyrrolidin-1-yl)pyridin-2-yl)-N′-(pyridin-2-ylmethyl)urea] as the compound, how does the IC50 read?
A: Its IC50 is 100 nM.

Q: Which IC50 does the source give for `O=C(NCc1ccccn1)Nc1cc(-n2c(=O)oc3ccccc32)ccn1` [Example 64, N-(4-(2-oxo-1,3-benzoxazol-3(2H)-yl)pyridin-2-yl)-N′-(pyridin-2-ylmethyl)urea] here?
A: Its IC50 is < 100 nM.

Q: With `O=C(NCc1ccccn1)Nc1cc(N2CC(COCc3ccccc3)OC2=O)ccn1` (centres unmarked) [Example 46, N-(4-(5-((benzyloxy)methyl)-2-oxo-1,3-oxazolidin-3-yl)pyridin-2-yl)-N′-(pyridin-2-ylmethyl)urea] as the compound, how does the IC50 read?
A: The IC50 was < 100 nM.

Q: For `O=C(NCc1cccnc1)Nc1cc(N2CC(c3ccccc3)CC2=O)ccn1` (centres unmarked) [Example 7, N-(4-(2-oxo-4-phenylpyrrolidin-1-yl)pyridin-2-yl)-N′-(pyridin-3-ylmethyl)urea], which IC50 is on record?
A: The IC50 was 190 nM.

Q: How did the IC50 turn out when `Cn1c(=O)n(-c2ccnc(NC(=O)NCc3ccccn3)c2)c2ccccc21` [Example 61, N-(4-(3-methyl-2-oxo-2,3-dihydro-1H-benzimidazol-1-yl)pyridin-2-yl)-N′-(pyridin-2-ylmethyl)urea] was run?
A: Its IC50 is < 100 nM.

Q: With `CC1CCC(=O)N1c1ccnc(NC(=O)NCc2ccccn2)c1` (centres unmarked) [Example 53, N-(4-(2-methyl-5-oxopyrrolidin-1-yl)pyridin-2-yl)-N′-((pyridin-2-yl)methyl)urea] as the compound, how does the IC50 read?
A: The IC50 was 100 nM.

Q: With `O=C(NCc1ccccn1)Nc1cc(N2CC(CCc3ccccc3)CC2=O)ccn1` (centres unmarked) [Example 37, N-(4-(2-oxo-4-(2-phenylethyl)pyrrolidin-1-yl)pyridin-2-yl)-N′-(pyridin-2-ylmethyl)urea] as the compound, how does the IC50 read?
A: The IC50 was < 100 nM.

Q: `O=C(NCc1ccccn1)Nc1cc(NC(=O)c2ccccc2)ccn1` [Example 69, N-(2-(((pyridin-2-ylmethyl)carbamoyl)amino)pyridin-4-yl)benzamide] was tested. Which IC50 did it give?
A: Its IC50 is < 100 nM.

Q: With `O=C(Cc1cccs1)Nc1cc(N2CC(c3ccccc3)OC2=O)ccn1` (centres unmarked) [Example 79, N-(4-(2-oxo-5-phenyl-1,3-oxazolidin-3-yl)pyridin-2-yl)-2-(2-thienyl)acetamide] as the compound, how does the IC50 read?
A: The IC50 was 230 nM.

Q: `CC1(C)C(=O)N(c2ccnc(NC(=O)NCc3ccccn3)c2)c2cccnc21` [Example 59, N-(4-(3,3-dimethyl-2-oxo-2,3-dihydro-1H-pyrrolo[3,2-b]pyridin-1-yl)pyridin-2-yl)-N′-(pyridin-2-ylmethyl)urea] was tested. Which IC50 did it give?
A: Its IC50 is < 100 nM.

Q: With `O=C(NCc1ccccn1)Nc1cc(-n2cc(-c3ccccc3)oc2=O)ccn1` [Example 47, N-(4-(2-oxo-5-phenyl-1,3-oxazol-3(2H)-yl)pyridin-2-yl)-N′-(pyridin-2-ylmethyl)urea] as the compound, how does the IC50 read?
A: Its IC50 is < 100 nM.

Q: With `O=C(NCc1ccccn1)Nc1cc(N2CC3(CCCCC3)CC2=O)ccn1` [Example 54, N-(4-(3-oxo-2-azaspiro[4.5]dec-2-yl)pyridin-2-yl)-N′-(pyridin-2-ylmethyl)urea] as the compound, how does the IC50 read?
A: Its IC50 is < 100 nM.

Q: How did the IC50 turn out when `O=C(NCc1ccccn1)Nc1cc(N2CC(c3ccccc3)CC2=O)ccn1` (centres unmarked) [Example 4, N-(4-(2-oxo-4-phenylpyrrolidin-1-yl)pyridin-2-yl)-N′-(pyridin-2-ylmethyl)urea] was run?
A: Its IC50 is < 100 nM.

Q: `O=C(CCc1ccccn1)Nc1cc(N2CC(c3ccccc3)CC2=O)ccn1` (centres unmarked) [Example 75, N-(4-(2-oxo-4-phenylpyrrolidin-1-yl)pyridin-2-yl)-3-(pyridin-2-yl)propanamide] was tested. Which IC50 did it give?
A: Its IC50 is 220 nM.

Q: For `O=C(NCc1ccc2c(c1)OCO2)Nc1cc(N2CC(c3ccccc3)CC2=O)ccn1` (centres unmarked) [Example 13, N-(1,3-benzodioxol-5-ylmethyl)-N′-(4-(2-oxo-4-phenylpyrrolidin-1-yl)pyridin-2-yl)urea], which IC50 is on record?
A: The IC50 was 280 nM.

Q: With `O=C(NCc1ccccn1)Nc1cc(N2CC(c3ccccc3)OC2=O)ccn1` (centres unmarked) [Example 42, N-(4-(2-oxo-5-phenyl-1,3-oxazolidin-3-yl)pyridin-2-yl)-N′-(pyridin-2-ylmethyl)urea] as the compound, how does the IC50 read?
A: Its IC50 is < 100 nM.

Q: With `O=C(NCc1ccccn1)Nc1cc(N2CC(c3cccs3)OC2=O)ccn1` (centres unmarked) [Example 48, N-(4-(2-oxo-5-(2-thienyl)-1,3-oxazolidin-3-yl)pyridin-2-yl)-N′-(pyridin-2-ylmethyl)urea] as the compound, how does the IC50 read?
A: The IC50 was < 100 nM.

Q: With `Cc1ccc2oc(=O)n(-c3ccnc(NC(=O)NCc4ccccn4)c3)c2c1` [Example 66, N-(4-(5-methyl-2-oxo-1,3-benzoxazol-3(2H)-yl)pyridin-2-yl)-N′-(pyridin-2-ylmethyl) urea] as the compound, how does the IC50 read?
A: Its IC50 is < 100 nM.

Q: `O=C(CCc1ccccn1)Nc1cc(N2CC(c3ccccc3)OC2=O)ccn1` (centres unmarked) [Example 76, N-(4-(2-oxo-5-phenyl-1,3-oxazolidin-3-yl)pyridin-2-yl)-3-(pyridin-2-yl)propanamide] was tested. Which IC50 did it give?
A: Its IC50 is 160 nM.

Q: For `CC1(C)C(=O)N(c2ccnc(NC(=O)NCc3ccccn3)c2)c2ccccc21` [Example 58, N-(4-(3,3-dimethyl-2-oxo-2,3-dihydro-1H-indol-1-yl)pyridin-2-yl)-N′-((pyridin-2-yl)methyl)urea], which IC50 is on record?
A: Its IC50 is < 100 nM.

Q: `COc1ccc(C2CC(=O)N(c3ccnc(NC(=O)NCc4ccccn4)c3)C2)cc1` (centres unmarked) [Example 21, N-(4-(4-(4-methoxyphenyl)-2-oxopyrrolidin-1-yl)pyridin-2-yl)-N′-(pyridin-2-ylmethyl)urea] was tested. Which IC50 did it give?
A: The IC50 was 120 nM.

Q: For `O=C(NCc1ccccn1)Nc1cc(N2CC(c3cccc(F)c3)CC2=O)ccn1` (centres unmarked) [Example 29, N-(4-(4-(3-fluorophenyl)-2-oxopyrrolidin-1-yl)pyridin-2-yl)-N′-(pyridin-2-ylmethyl)urea], which IC50 is on record?
A: The IC50 was 100 nM.

Q: `O=C(NCc1ccccn1)Nc1cc(N2CC(c3ccccc3)CC2=O)ccn1` (single isomer, unassigned; (-)) [Example 5, (−)-N-(4-(2-oxo-4-phenylpyrrolidin-1-yl)pyridin-2-yl)-N′-(pyridin-2-ylmethyl)urea] was tested. Which IC50 did it give?
A: The IC50 was < 100 nM.

Q: Which IC50 does the source give for `CC1CCN(c2ccnc(NC(=O)NCc3ccccn3)c2)C1=O` (centres unmarked) [Example 51, N-(4-(3-methyl-2-oxopyrrolidin-1-yl)pyridin-2-yl)-N′-((pyridin-2-yl)methyl)urea] here?
A: The IC50 was < 100 nM.

Q: For `O=C(NCc1ccccn1)Nc1cc(N2CC(COc3ccccc3)OC2=O)ccn1` (centres unmarked) [Example 45, N-(4-(2-oxo-5-(phenoxymethyl)-1,3-oxazolidin-3-yl)pyridin-2-yl)-N′-(pyridin-2-ylmethyl)urea], which IC50 is on record?
A: Its IC50 is < 100 nM.

Q: Which IC50 does the source give for `O=C(CCc1nc2ccccc2s1)Nc1cc(N2CC(c3ccccc3)OC2=O)ccn1` (centres unmarked) [Example 78, 3-(1,3-benzothiazol-2-yl)-N-(4-(2-oxo-5-phenyl-1,3-oxazolidin-3-yl)pyridin-2-yl)propanamide] here?
A: Its IC50 is < 100 nM.

Q: How did the IC50 turn out when `O=C(CCc1cccnc1)Nc1cc(N2CC(c3ccccc3)OC2=O)ccn1` (centres unmarked) [Example 77, N-(4-(2-oxo-5-phenyl-1,3-oxazolidin-3-yl)pyridin-2-yl)-3-(pyridin-3-yl)propanamide] was run?
A: The IC50 was 190 nM.
